Laboratory results from paper PMC12300679, “Taurine-Based Hybrid Drugs as Potential Anticancer Therapeutic Agents: In Vitro, In Vivo Evaluations” (Pharmaceuticals, 2025).

What was measured:
[1] = system: HuTu 80 human duodenal adenocarcinoma cells; experiment: MTT cytotoxicity assay, HuTu 80; format: cell-based; conditions: for IC50: Homo sapiens, HuTu80, MTT, tested at 1–200 µM, three independent experiments
[2] = system: RPMI 1788 human healthy donor peripheral blood leukocytes; experiment: MTT cytotoxicity assay, normal RPMI 1788 cells; format: cell-based; conditions: tested at 1–200 µM, three independent experiments, read-out: IC50 RPMI 1788 (normal cell line)
[3] = Acute in vivo toxicity, single intraperitoneal administration; conditions: mouse, ip, BDF1 mice, Behrens method, 14 d observation, read-out: half-lethal toxic dose (LD50)
Protocol: Firstly, acute in vivo toxicity was determined in order to calculate doses for the determination of the potential antileukemia activity. An acute toxicity study was carried out on the mice of the BDF1 line weighing from 20 to 24 g. In the experiment, clinically healthy animals were used, which were treated under the same conditions. To evaluate LD50, the toxicity gain curve was plotted against increasing doses (the Behrens method) (Figure 3).
Acute toxicity was evaluated using mice of the BDF1 line weighing from 20 to 24 g. In the experiment, clinically healthy animals treated under the same conditions were used. A total of 4–6 animals were used for each dose. All experiments on animals were carried out according to the Nursery and Vivarium, Russian Academy of Sciences Federal Research Center of Problems of Chemical Physics and Medicinal Chemistry (FRC PCPMC RAS) and in accordance with the rules established by the Commission on Bioethics of the FRC PCPMC RAS. One day after administration of the specimen, the animals were continuously treated for 4 h. Then, death of animals and clinical pattern of intoxication were evaluated once a day for 14 d. The test compounds were added intraperitoneally once. The individual volume of each animal was calculated from the mass of the body and dose of the test compound.
The lethal dose (LD100) for all animals and the maximum tolerable dose (MTD) values were also evaluated. Results of the studies are given in the form of tables and graphs.

lymphatic leukemia P388 = experiment: Antitumor activity, syngeneic lymphatic leukemia P388 in BDF1 mice; format: in vivo, mouse; conditions: for ILS / MST ± SD: i.p. days 1, 5, 9; for antileukemia / antitumor effect (in words): doses under study, i.p.
Protocol: At the next stage, we evaluated them in vivo using syngeneic mouse leukosis P388, which plays an important role in the screening of potential antitumor agents. The antitumor effect of the synthesized compounds was evaluated according to the increase in the average lifespan (ILS, %) of tumor-bearing animals. Due to the fact that physiologically relevant solvent, such as water or physiological solution [49], can be used as a solvent for parenteral administration of substances, we chose only water-soluble compounds 4o–r for the in vivo study.
As model tumors for the determination of antitumor activity of phosphorus-containing derivatives of pyrrolidine, the strain of lymphatic leukemia P388 was chosen. Lymphatic leukemia P388 was transplanted into hybrid mice of the BDF1 line intraperitoneally in accordance with the standard procedure. The inoculum contained 10^6 tumor cells in isotonic solution of NaCl. […] In each experiment, the control group was represented by the cohort of animals with tumors not treated with the compounds. Each group consisted of six mice. The animals were inspected daily over at least 60 days. The effectiveness of therapy was evaluated by the number of surviving animals, as well as by the increase in the average lifespan (ILS%), which was evaluated as the percentage of the mean survival time (MST) of the treated group (t) as compared to the control group (c): […].

[4] = system: HL-60 human promyelocytic leukemia cells; experiment: MTT cytotoxicity assay, HL-60; format: cell-based; conditions: for IC50: Homo sapiens, HL-60, MTT, tested at 1–200 µM, three independent experiments
[5] = system: WI38 human fibroblast cell line; experiment: MTT cytotoxicity assay, normal WI38 cells; format: cell-based; conditions: WI-38, tested at 1–200 µM, three independent experiments
[6] = system: M-HeLa human cervix carcinoma cells; experiment: MTT cytotoxicity assay, M-HeLa; format: cell-based; conditions: for IC50: Homo sapiens, M-HeLa, tested at 1–200 µM, three independent experiments
[7] = dose 12 (table prints no unit; b71 mg/kg)
[8] = dose 17 (table prints no unit; b71 mg/kg)
[9] = dose 27 (table prints no unit; b71 mg/kg)
[10] = dose 38 (table prints no unit; b71 mg/kg)
[11] = dose 57 (table prints no unit; b71 mg/kg)
[12] = dose 16 (table prints no unit; b71 mg/kg)
[13] = dose 22 (table prints no unit; b71 mg/kg)
[14] = dose 34 (table prints no unit; b71 mg/kg)
[15] = dose 48 (table prints no unit; b71 mg/kg)
[16] = dose 72 (table prints no unit; b71 mg/kg)

Structure (SMILES): Cl.O=P(c1ccccc1)(c1ccccc1)C1CCCN1S(=O)(=O)CCN1CCCC1 (centres unmarked) [Compound 4q, 1-(2-((2-(Diphenylphosphoryl)pyrrolidin-1-yl)sulfonyl)ethyl)pyrrolidin-1-ium chloride]
- IC50 [1]: > 100 µM
- IC50 [2]: > 100 µM
- LD50 at 14 d [3]: 215 ± 16.7 mg/kg
- ILS (lymphatic leukemia P388; [7]): −9%
- MST ± SD (lymphatic leukemia P388; [7]): 8.3 ± 0.6 days
- ILS (lymphatic leukemia P388; [8]): 13%
- MST ± SD (lymphatic leukemia P388; [8]): 10.3 ± 0.9 days
- ILS (lymphatic leukemia P388; [9]): 33%
- MST ± SD (lymphatic leukemia P388; [9]): 12.2 ± 1.7 days
- ILS (lymphatic leukemia P388; [10]): 69%
- MST ± SD (lymphatic leukemia P388; [10]): 15.5 ± 3.9 days
- ILS (lymphatic leukemia P388; [11]): 11%
- MST ± SD (lymphatic leukemia P388; [11]): 10.2 ± 0.2 days
- antileukemia / antitumor effect (in words) (lymphatic leukemia P388): exhibited antileukemia activity
- IC50 [4]: > 100 µM
- IC50 [5]: > 100 µM
- IC50 ([6]; MTT): > 100 µM

Structure (SMILES): CCCCN(CCCC)CCS(=O)(=O)N1CCCC1P(=O)(c1ccccc1)c1ccccc1.Cl (centres unmarked) [Compound 4p, N-Butyl-N-(2-((2-(diphenylphosphoryl)pyrrolidin-1-yl)sulfonyl)ethyl)butan-1-aminium chloride]
- IC50 [1]: 94.4 ± 8.7 µM
- SI (selectivity index) HuTu 80 ([1]; HuTu 80 versus normal WI38 cells): - ((-)—no selectivity)
- IC50 [2]: 176 ± 3.4 µM
- LD50 at 14 d [3]: 165 ± 18.2 mg/kg
- ILS (lymphatic leukemia P388; [12]): 100%
- MST ± SD (lymphatic leukemia P388; [12]): 20 ± 3.1 days
- ILS (lymphatic leukemia P388; [13]): 80%
- MST ± SD (lymphatic leukemia P388; [13]): 18 ± 3.2 days
- ILS (lymphatic leukemia P388; [14]): 75%
- MST ± SD (lymphatic leukemia P388; [14]): 17.5 ± 2.7 days
- ILS (lymphatic leukemia P388; [15]): 55%
- MST ± SD (lymphatic leukemia P388; [15]): 15.5 ± 3.4 days
- ILS (lymphatic leukemia P388; [16]): 42%
- MST ± SD (lymphatic leukemia P388; [16]): 14.2 ± 2.4 days
- antileukemia / antitumor effect (in words) (lymphatic leukemia P388): exhibited antileukemia activity
- SI (selectivity index) HL-60 ([4]; HL-60 versus normal RPMI 1788 leukocytes): 2.3
- IC50 [4]: 76.7 ± 6.1 µM
- IC50 [5]: 63.2 ± 5.7 µM
- IC50 ([6]; MTT): 57 ± 4.6 µM
- SI (selectivity index) M-HeLa ([6]; M-HeLa versus normal WI38 cells): 1.1
- cytotoxicity against M-HeLa (in words) ([6]; MTT): moderate cytotoxicity
